Data taken from patent US12077503B2, “Substituted cyclic amides and their use as herbicides” (FMC CORPORATION, priority 2015, dated 2024).

How the values were obtained:
Format in all cases: in vivo
[1] = system: barnyardgrass (Echinochloa crus-galli); test: Test G Pre-Emergence Protocol; conditions: Echinochloa crus-galli, pre-emergence, 312 h, evaluated after 13 days; for pest or weed control at 15.625 g/ha: 15.625 g ai/ha, read-out: Barnyard grass damage rating (100=total damage to plant; 0=no damage to plant); for pest or weed control at 62.5 g/ha: 62.5 g ai/ha, 100=total damage to plant, 0=no damage to plant, read-out: plant damage rating, Barnyardgrass; for pest or weed control at 250 g/ha: 250 g ai/ha, read-out: Barnyardgrass damage rating (100=total damage to plant; 0=no damage to plant)
Method in brief: (§1)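 Spraying took place one day after sowing, at 15.625, 62.5 or 250 g/ha, using an acetone/water (50:50) spray solution containing 0.5% Tween 20. Plants were kept under glasshouse conditions (24/16 °C, 14 h light, 65% humidity, watered twice daily), and injury was rated 0–100 at day 13.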

[2] = system: giant foxtail (Setaria faberi); test: Test G Pre-Emergence Protocol; conditions: Setaria faberi, pre-emergence, 312 h, evaluated after 13 days; for pest or weed control at 15.625 g/ha: 15.625 g ai/ha; for pest or weed control at 15.625 g/ha / pest or weed control at 250 g/ha: read-out: Foxtail, Giant damage rating (100=total damage to plant; 0=no damage to plant); for pest or weed control at 62.5 g/ha: 62.5 g ai/ha, 100=total damage to plant, 0=no damage to plant, read-out: plant damage rating, Foxtail, Giant; for pest or weed control at 250 g/ha: 250 g ai/ha
Method in brief: as §1

corn (Zea mays) [3] = test: Test G Pre-Emergence Protocol; conditions: Zea mays, pre-emergence, 312 h, evaluated after 13 days; for plant injury at 15.625 g/ha: 15.625 g ai/ha; for plant injury at 15.625 g/ha / plant injury at 250 g/ha: read-out: Corn damage rating (100=total damage to plant; 0=no damage to plant); for plant injury at 62.5 g/ha: 62.5 g ai/ha, 100=total damage to plant, 0=no damage to plant, read-out: plant damage rating, Corn; for plant injury at 250 g/ha: 250 g ai/ha
Method in brief: as §1

[4] = system: redroot pigweed (Amaranthus retroflexus); test: Test G Pre-Emergence Protocol; conditions: Amaranthus retroflexus, pre-emergence, 312 h, evaluated after 13 days; for pest or weed control at 15.625 g/ha: 15.625 g ai/ha; for pest or weed control at 15.625 g/ha / pest or weed control at 250 g/ha: read-out: Pigweed, Redroot damage rating (100=total damage to plant; 0=no damage to plant); for pest or weed control at 62.5 g/ha: 62.5 g ai/ha, 100=total damage to plant, 0=no damage to plant, read-out: plant damage rating, Pigweed, Redroot; for pest or weed control at 250 g/ha: 250 g ai/ha
Method in brief: as §1

[5] = system: velvetleaf (Abutilon theophrasti); test: Test G Pre-Emergence Protocol; conditions: Abutilon theophrasti, pre-emergence, 312 h, evaluated after 13 days; for pest or weed control at 15.625 g/ha: 15.625 g ai/ha; for pest or weed control at 15.625 g/ha / pest or weed control at 250 g/ha: read-out: Velvetleaf damage rating (100=total damage to plant; 0=no damage to plant); for pest or weed control at 62.5 g/ha: 62.5 g ai/ha, 100=total damage to plant, 0=no damage to plant, read-out: plant damage rating, Velvetleaf; for pest or weed control at 250 g/ha: 250 g ai/ha
Method in brief: as §1

[6] = system: ivy-leaved morning glory (Ipomoea hederacea); test: Test G Pre-Emergence Protocol; conditions: Ipomoea, pre-emergence, 312 h, evaluated after 13 days; for pest or weed control at 15.625 g/ha: 15.625 g ai/ha, read-out: Morning-glory, Ivy-leaved damage rating (100=total damage to plant; 0=no damage to plant); for pest or weed control at 62.5 g/ha: 62.5 g ai/ha, 100=total damage to plant, 0=no damage to plant, read-out: plant damage rating, Morningglory, Ivy-leaved; for pest or weed control at 250 g/ha: 250 g ai/ha, read-out: Morningglory, Ivy-leaved damage rating (100=total damage to plant; 0=no damage to plant)
Method in brief: as §1

[7] = system: barnyardgrass (Echinochloa crus-galli); test: Test G Post-Emergence Protocol; conditions: Echinochloa crus-galli, post-emergence, 312 h; for pest or weed control at 15.625 g/ha: 15.625 g ai/ha, evaluated after 13 days (100=total damage to plant; 0=no damage to plant), read-out: Barnyardgrass damage rating; for pest or weed control at 62.5 g/ha: 62.5 g ai/ha, read-out: Barnyardgrass damage rating (100=total damage to plant; 0=no damage to plant); for pest or weed control at 62.5 g/ha / pest or weed control at 250 g/ha: evaluated after 13 days; for pest or weed control at 250 g/ha: 250 g ai/ha, read-out: damage to plant, Barnyardgrass (100=total damage to plant; 0=no damage to plant)
Method in brief: (§2)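 A glasshouse post-emergence test: 8-day-old plants sprayed at 15.625, 62.5 or 250 g/ha, then grown at 24/16 °C day/night with 14 h light and 65% humidity. Damage rated 13 days later, 0–100.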

[8] = system: giant foxtail (Setaria faberi); test: Test G Post-Emergence Protocol; conditions: Setaria faberi, post-emergence, 312 h; for pest or weed control at 15.625 g/ha: 15.625 g ai/ha, evaluated after 13 days (100=total damage to plant; 0=no damage to plant), read-out: Foxtail, Giant damage rating; for pest or weed control at 62.5 g/ha: 62.5 g ai/ha, read-out: Foxtail, Giant damage rating (100=total damage to plant; 0=no damage to plant); for pest or weed control at 62.5 g/ha / pest or weed control at 250 g/ha: evaluated after 13 days; for pest or weed control at 250 g/ha: 250 g ai/ha, read-out: damage to plant, Foxtail, Giant (100=total damage to plant; 0=no damage to plant)
Method in brief: as §2

corn (Zea mays) [9] = test: Test G Post-Emergence Protocol; conditions: Zea mays, post-emergence, 312 h; for plant injury at 15.625 g/ha: 15.625 g ai/ha, evaluated after 13 days (100=total damage to plant; 0=no damage to plant), read-out: Corn damage rating; for plant injury at 62.5 g/ha: 62.5 g ai/ha, read-out: Corn damage rating (100=total damage to plant; 0=no damage to plant); for plant injury at 62.5 g/ha / plant injury at 250 g/ha: evaluated after 13 days; for plant injury at 250 g/ha: 250 g ai/ha, read-out: damage to plant, Corn (100=total damage to plant; 0=no damage to plant)
Method in brief: as §2

[10] = system: redroot pigweed (Amaranthus retroflexus); test: Test G Post-Emergence Protocol; conditions: Amaranthus retroflexus, post-emergence, 312 h; for pest or weed control at 15.625 g/ha: 15.625 g ai/ha, evaluated after 13 days (100=total damage to plant; 0=no damage to plant), read-out: Pigweed, Redroot damage rating; for pest or weed control at 62.5 g/ha: 62.5 g ai/ha, read-out: Pigweed, Redroot damage rating (100=total damage to plant; 0=no damage to plant); for pest or weed control at 62.5 g/ha / pest or weed control at 250 g/ha: evaluated after 13 days; for pest or weed control at 250 g/ha: 250 g ai/ha, read-out: damage to plant, Pigweed, Redroot (100=total damage to plant; 0=no damage to plant)
Method in brief: as §2

[11] = system: velvetleaf (Abutilon theophrasti); test: Test G Post-Emergence Protocol; conditions: Abutilon theophrasti, post-emergence, 312 h; for pest or weed control at 15.625 g/ha: 15.625 g ai/ha, evaluated after 13 days (100=total damage to plant; 0=no damage to plant), read-out: Velvetleaf damage rating; for pest or weed control at 62.5 g/ha: 62.5 g ai/ha, read-out: Velvetleaf damage rating (100=total damage to plant; 0=no damage to plant); for pest or weed control at 62.5 g/ha / pest or weed control at 250 g/ha: evaluated after 13 days; for pest or weed control at 250 g/ha: 250 g ai/ha, read-out: damage to plant, Velvetleaf (100=total damage to plant; 0=no damage to plant)
Method in brief: as §2

[12] = system: ivy-leaved morning glory (Ipomoea hederacea); test: Test G Post-Emergence Protocol; conditions: Ipomoea, post-emergence, 312 h; for pest or weed control at 15.625 g/ha: 15.625 g ai/ha, evaluated after 13 days (100=total damage to plant; 0=no damage to plant), read-out: Morningglory, Ivy-leaved damage rating; for pest or weed control at 62.5 g/ha: 62.5 g ai/ha, read-out: Morningglory, Ivy-leaved damage rating (100=total damage to plant; 0=no damage to plant); for pest or weed control at 62.5 g/ha / pest or weed control at 250 g/ha: evaluated after 13 days; for pest or weed control at 250 g/ha: 250 g ai/ha, read-out: damage to plant, Morningglory, Ivy-leaved (100=total damage to plant; 0=no damage to plant)
Method in brief: as §2

Compound	pest or weed control at 15.625 g/ha [1] [%]	pest or weed control at 62.5 g/ha [1] [%]	pest or weed control at 250 g/ha [1] [%]	pest or weed control at 15.625 g/ha [2] [%]	pest or weed control at 62.5 g/ha [2] [%]	pest or weed control at 250 g/ha [2] [%]	plant injury at 15.625 g/ha (corn (Zea mays) [3]) [%]	plant injury at 62.5 g/ha (corn (Zea mays) [3]) [%]	plant injury at 250 g/ha (corn (Zea mays) [3]) [%]	pest or weed control at 62.5 g/ha [4] [%]	pest or weed control at 250 g/ha [4] [%]	pest or weed control at 62.5 g/ha [5] [%]	pest or weed control at 250 g/ha [5] [%]	pest or weed control at 15.625 g/ha [6] [%]	pest or weed control at 62.5 g/ha [6] [%]	pest or weed control at 250 g/ha [6] [%]	pest or weed control at 15.625 g/ha [7] [%]	pest or weed control at 62.5 g/ha [7] [%]	pest or weed control at 250 g/ha [7] [%]	pest or weed control at 15.625 g/ha [8] [%]	also measured
CN1C[C@H](c2ccc(C(F)(F)F)cc2)[C@@H](C(=O)Nc2ccc(C(F)(F)F)c(F)c2F)C1=O (racemic) [Compound 1451]	0	0	0	0	0	0	0	0	0	0	0	0	0	0	0	0	0	0	0	0	pest or weed control at 15.625 g/ha [4]: 0%; pest or weed control at 15.625 g/ha [5]: 0%; pest or weed control at 62.5 g/ha [8]: 0%; pest or weed control at 250 g/ha [8]: 0%; plant injury at 15.625 g/ha (corn (Zea mays) [9]): 0%; plant injury at 62.5 g/ha (corn (Zea mays) [9]): 0%; plant injury at 250 g/ha (corn (Zea mays) [9]): 0%; pest or weed control at 15.625 g/ha [10]: 0%; pest or weed control at 62.5 g/ha [10]: 0%; pest or weed control at 250 g/ha [10]: 0%; pest or weed control at 15.625 g/ha [11]: 0%; pest or weed control at 62.5 g/ha [11]: 0%; pest or weed control at 250 g/ha [11]: 0%; pest or weed control at 15.625 g/ha [12]: 0%; pest or weed control at 62.5 g/ha [12]: 0%; pest or weed control at 250 g/ha [12]: 0%
COc1ccc(OC)c([C@H]2CN(C)C(=O)[C@@H]2C(=O)Nc2ccccc2F)c1 (racemic) [Compound 1453]	20	40	90	40	60	90	0	0	0	0	0	0	20	0	0	0	0	10	10	10	pest or weed control at 15.625 g/ha [4]: 0%; pest or weed control at 62.5 g/ha [8]: 50%; pest or weed control at 250 g/ha [8]: 50%; plant injury at 15.625 g/ha (corn (Zea mays) [9]): 10%; plant injury at 62.5 g/ha (corn (Zea mays) [9]): 10%; plant injury at 250 g/ha (corn (Zea mays) [9]): 10%; pest or weed control at 15.625 g/ha [10]: 0%; pest or weed control at 62.5 g/ha [10]: 0%; pest or weed control at 250 g/ha [10]: 0%; pest or weed control at 15.625 g/ha [11]: 0%; pest or weed control at 62.5 g/ha [11]: 0%; pest or weed control at 250 g/ha [11]: 0%; pest or weed control at 15.625 g/ha [12]: 0%; pest or weed control at 62.5 g/ha [12]: 0%; pest or weed control at 250 g/ha [12]: 10%
COc1ccc([C@H]2CN(C)C(=O)[C@@H]2C(=O)Nc2ccccc2F)c(C)c1 (racemic) [Compound 1455]	30	70	90	30	70	90	0	0	10	0	0	30	0	0	0	20	0	0	20	10	pest or weed control at 15.625 g/ha [5]: 0%; pest or weed control at 62.5 g/ha [8]: 10%; pest or weed control at 250 g/ha [8]: 50%; plant injury at 15.625 g/ha (corn (Zea mays) [9]): 10%; plant injury at 62.5 g/ha (corn (Zea mays) [9]): 10%; plant injury at 250 g/ha (corn (Zea mays) [9]): 20%; pest or weed control at 15.625 g/ha [10]: 0%; pest or weed control at 62.5 g/ha [10]: 0%; pest or weed control at 250 g/ha [10]: 40%; pest or weed control at 15.625 g/ha [11]: 0%; pest or weed control at 62.5 g/ha [11]: 0%; pest or weed control at 250 g/ha [11]: 10%; pest or weed control at 15.625 g/ha [12]: 0%; pest or weed control at 62.5 g/ha [12]: 0%; pest or weed control at 250 g/ha [12]: 20%
